From patent US20190038624A1 (priority 2017, published 2019)
Where two headings read alike, the source gives them in different places.

Test system: patients with probable MSA
Format: in vivo, human
Conditions: average of five patients, oral 200 mg daily
Method: Five patients fulfilled the consensus criteria for “probable MSA” and received oral Nilotinib 200 mg daily for 24 weeks. Disease progression was monitored every 4 weeks by measuring the patient's motor and non-motor symptoms with the Unified Multiple System Atrophy Rating Scale (UMSARS). Mini Mental State Examination (MMSE) was used to screen for cognitive impairment. […] However, these AEs resolved with continued administration of the drug. […] Furthermore, there was a significant decline of 6.8 and 2.2 points in the UMSARS and UMSARS-II, respectively, compared to baseline (see FIG. 2). MMSE results were normal throughout treatment.

Cc1cn(-c2cc(NC(=O)c3ccc(C)c(Nc4nccc(-c5cccnc5)n4)c3)cc(C(F)(F)F)c2)cn1 [Nilotinib]
UMSARS, Average (Week 4): 52.6 points
UMSARS-II, Average (Week 4): 22.2 points
UMSARS, Average (Week 8): 52.4 points
UMSARS-II, Average (Week 8): 22.2 points
UMSARS, Average (Week 12): 50.8 points
UMSARS-II, Average (Week 12): 22 points
UMSARS, Average (Week 16): 49.4 points
UMSARS-II, Average (Week 16): 21.6 points
UMSARS, Average (Week 20): 47.8 points
UMSARS-II, Average (Week 20): 21.2 points
UMSARS, Average (Week 24): 46.6 points
UMSARS-II, Average (Week 24): 20.6 points
